Reference: ChEMBL document CHEMBL4387731, “Eicosanoid mediation of cannabinoid actions” (2019)

How the values were obtained:
[1] = target: Cannabinoid receptor 2 (Homo sapiens) (UniProt P34972); experiment: Agonist activity at human CB2 receptor assessed as reduction in […] level at 20 uM incubated for 10 mins relative to control
[2] = organism: Cavia porcellus; experiment: Agonist activity at Dunkin Hartley guinea pig CB2 receptor assessed as inhibition of capsaicin-induced depolarization at 20 uM incubated for 10 mins relative to control
[3] = organism: Cavia porcellus; experiment: Agonist activity at Dunkin Hartley guinea pig CB2 receptor assessed as reduction in […] level at 20 uM incubated for 10 mins relative to control
[4] = target: Cannabinoid receptor 2 (Homo sapiens) (UniProt P34972); experiment: Agonist activity at human CB2 receptor assessed as inhibition of capsaicin-induced depolarization at 20 uM incubated for 10 mins relative to control
[5] = Inhibition of IL1aplha-induced PGE2 production in bovine articular chondrocytes at 5 uM incubated for 48 hrs by ELISA relative to control; format: functional; settings: Bos taurus
[6] = tested on: J774; experiment: Inhibition of LPS-induced PGE2 production in mouse J774 cells at 10 uM incubated for 24 hrs by enzyme immunoassay relative to control; format: functional; settings: J774, 24 h
[7] = tested on: Oryctolagus cuniculus; experiment: Reduction in intraocular pressure in rabbit applied topically relative to control; format: functional; parameters: scale not given: the % may be the effect or the level left
[8] = tested on: Mus musculus; experiment: Reduction in LTB4 production in athymic CD-1 nude mouse xenografted with human U87 cells at 0.5 mg/mouse/day administered peritumorally for 5 days by RP-HPLC analysis relative to control; format: functional; parameters: scale not given: the % may be the effect or the level left
[9] = tested on: Mus musculus; experiment: Reduction in anandamide production in athymic CD-1 nude mouse xenografted with human U87 cells at 0.5 mg/mouse/day administered peritumorally for 5 days by RP-HPLC with fluorimetric detection method relative to control; format: functional; parameters: scale not given: the % may be the effect or the level left

Chain of Cannabinoid receptor 2 (Homo sapiens) (P34972 whole entry): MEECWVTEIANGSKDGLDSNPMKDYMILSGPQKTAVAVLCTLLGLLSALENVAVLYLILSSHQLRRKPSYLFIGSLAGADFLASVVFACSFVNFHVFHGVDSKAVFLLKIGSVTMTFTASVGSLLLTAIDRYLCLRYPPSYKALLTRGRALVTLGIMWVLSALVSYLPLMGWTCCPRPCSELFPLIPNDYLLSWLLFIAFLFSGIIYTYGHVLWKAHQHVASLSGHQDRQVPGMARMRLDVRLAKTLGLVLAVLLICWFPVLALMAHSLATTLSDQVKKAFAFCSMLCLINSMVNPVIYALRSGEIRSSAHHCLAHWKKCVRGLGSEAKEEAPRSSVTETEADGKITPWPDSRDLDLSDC

Compound O=C(NCc1ccncc1)c1cnc(Nc2cccc(Cl)c2)nc1C(F)(F)F has an Imax [1] of 40%, an Imax [2] of 40% and an Imax [3] of 40%. The Imax [4] was 40%.
In the case of CCCCCCC(C)(C)c1cc(O)c2c(c1)OC(C)(C)[C@@H]1CCC(CO)=C[C@@H]21, the inhibition at 5 µM [5] is reported as over 50%.
Work on Cc1c(C(=O)c2cccc3ccccc23)c2cccc3c2n1[C@H](CN1CCOCC1)CO3 [WIN-552122] yielded an inhibition at 5 µM [5] of over 50%.
With CCCCCc1cc(O)c2c(c1)OC(C)(C)[C@@H]1CCC(C)=C[C@@H]21 [DRONABINOL] the inhibition at 10 µM [6] was 60% and the Activity [7] was 20 - 25%.
In the case of C=C(C)[C@@H]1CCC(C)=C[C@H]1c1c(O)cc(CCCCC)cc1O [CANNABIDIOL], the Activity [8] is reported as 25% and the Activity [9] is reported as 30%.
